The results in this text go back to patent publication US20190144942A1, “METHODS FOR IDENTIFYING AND MODULATING IMMUNE PHENOTYPES” (priority 2016, published 2019).

Holding throughout (format): cell-based, human
Assay [1] relates to cluster 1-like/CD64^Hi,PD-L1^Hi cDCs. Put plainly: Acquisition of the CD64Hi,PD-L1Hi cDC phenotype in elite controller cells exposed to virus with inhibitory drugs (flow cytometry).
Assay [2] shares this test system. Put plainly: Induction of CD64Hi,PD-L1Hi cDCs in PBMCs incubated with TLR3 agonist and nanoparticle-encapsulated HIV-1 Gag DNA, without live virus. The following applies: PBMCs from healthy (HIV-negative) individuals; 2 μg/ml Poly I:C and/or polymer nanoparticles loaded with 100 nucleotide HIV-1 Gag DNA; no live virus. The method, then: PBMC or isolated cDCs were stained with LIVE/DEAD cell blue viability dye (Invitrogen, Carlsbad, Calif.) and monoclonal antibodies directed against CD11c (Biolegend), CD14 (BD), HLA-DR, CD64, PDL-1, ICAM1, CD16, SLAMF8 (Biolegend) and subsequently analyzed on a Fortessa cytometer (BD Biosciences, San Jose, Calif.). For intracellular cytokine staining, cells were treated with a commercial fixation/permeabilization kit (BioLegend) according to the manufacturer's protocol. Data were analyzed with FlowJo software (Tree Star). cDCs were identified from bulk PBMCs as a population of viable CD14^− lymphocytes expressing high levels of CD11c and HLA-DR.
Finally, Applicants explored how Applicants might further exploit this TBK1-dependent innate immune sensing pathway to boost the fraction of cDCs acquiring the cluster 1 phenotype without exposure to live virus. For this purpose, Applicants incubated PBMCs from healthy individuals or ECs simultaneously with a TLR3 agonist (Poly(I:C)) and single- or double-stranded HIV-1 Gag DNA (ssDNA or dsDNA, respectively) encapsulated in polymeric nanoparticles. […]

For assay [3] the test system is unchanged.

“Also recorded” adds a separate entry of the source. Like-named read-outs stand apart in the source and are kept apart here.

For the molecule `O=C(NCCCNc1nc(Nc2cccc(NC(=O)N3CCCC3)c2)ncc1I)c1cccs1` [BX795], the “induction of the cluster 1-like/CD64^Hi,PD-L1^Hi population” value in assay [1] (EC PBMCs, 1 μM BX795 added at the time of viral addition, p=0.0020, Wilcoxon signed-rank test) is “dramatic and significant abrogation”.

`O=C(N[C@H](Cc1ccccc1)C(=O)O)c1sc2cc(F)ccc2c1Cl` [TLR3 inhibitor]: in assay [1] (elite controllers (ECs), virus plus TLR3 or TLR4 antagonist vs DMSO, p=0.0^2, Wilcoxon matched-pairs signed-rank test), the “acquisition of the cluster 1/CD64^Hi,PD-L1^Hi cDC phenotype” value is on record as “modest, but significant, effect”. As for Poly(I:C), the “proportion of cluster 1-like/CD64^Hi,PD-L1^Hi cDCs” value in assay [2] is listed as “insufficient”; in assay [3] (24 hours), “significantly induce; also recorded: induced a larger population; also recorded: significant increase”. In assay [3], the “proportion of CD64^Hi PDL1^Hi cells among cDCs” value was “significantly induce”.
